Source: ChEMBL document CHEMBL5226340, “Chemical Biology of Sortase A Inhibition: A Gateway to Anti-infective Therapeutic Agents” (J Med Chem, 2021)
≈ marks a conversion by molar mass, not a printed value. Blank lines part the entries; values can stand above or below the molecule they belong to. Starred links: 1 amine or outer side, 2 acyl side, 3 side chain; linkers in the order of their positions; H or OH if unused. Non-standard residues stand in square brackets, D forms with d. Residues, ends and D or L forms follow the SMILES beside them. *: point of attachment. X1 = C[C@@H](N[*:1])P(=O)(O)CCC(=O)[*:2]; Cbz = O=C(OCc1ccccc1)*; CH2Cl = ClC*

Columns and labels:
Sortase A [1] = target: T1, Sortase A (Staphylococcus aureus, UniProt Q9S446); test: Inhibition of recombinant Staphylococcus aureus ATCC 6538p SrtA expressed in Escherichia coli TOP10 using Dabcyl-QALPETGEE-Edans as substrate incubated for 1 hr by fluorometric analysis
T1 sequence (Q9S446 whole entry): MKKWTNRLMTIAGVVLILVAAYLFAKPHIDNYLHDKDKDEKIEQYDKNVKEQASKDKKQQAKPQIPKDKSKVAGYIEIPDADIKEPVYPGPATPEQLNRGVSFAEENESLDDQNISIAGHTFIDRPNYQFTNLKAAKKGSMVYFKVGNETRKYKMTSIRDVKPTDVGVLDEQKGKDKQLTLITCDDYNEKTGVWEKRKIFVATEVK

Staphylococcus aureus [2] = test: Antibacterial activity against Staphylococcus aureus ATCC 6538p assessed as inhibition of bacterial growth incubated overnight by spectrophotometer; assay type: functional
Sortase A [3] = target: T1, Sortase A; test: Inhibition of recombinant Staphylococcus aureus SrtA deltaN59 using Dabcyl-[…]-Edans as substrate preincubated for 20 mins followed by substrate addition and measured after 1 hr by fluorescence based analysis
[4] = target: T2, Sortase A (Staphylococcus aureus) (UniProt Q9S446); test: Binding affinity to Staphylococcus aureus SrtA using Abz-DNP as substrate assessed as second order rate constant of inhibition, kinact/ki
T2 sequence (whole entry): T1 sequence (Q9S446 whole entry)

[5] = target: T2, Sortase A (Staphylococcus aureus); test: Binding affinity to Staphylococcus aureus SrtA assessed as first order rate constant of inactivation
Sortase A [6] = target: T1, Sortase A; test: Binding affinity to Staphylococcus aureus SrtA assessed as inhibition constant
Sortase A [7] = target: T1, Sortase A; test: Inhibition of Staphylococcus aureus USA 300 SrtA expressed in Escherichia coli BL21 (DE3) cells using Dabcyl-QALPETGEE-Edans as substrate incubated for 1 hr by FRET assay
Sortase A [8] = target: T1, Sortase A; test: Inhibition of C-terminal 6His-tagged recombinant Staphylococcus aureus SrtA with 1 to 59 residues truncated from N-terminus expressed in Escherichia coli BL21 (DE3) using dabcyl-QALPETGEE-edans as substrate preincubated for 1 hr followed by substrate addition and measured for 1 hr by FRET assay
Staphylococcus aureus [9] = test: Antibacterial activity against Staphylococcus aureus; assay type: functional
Staphylococcus aureus [10] = test: Inhibition of biofilm formation in Staphylococcus aureus ATCC 29213 incubated for 24 hrs by crystal violet staining based analysis; assay type: functional, organism-based; details: ATCC 29213, 24 h
Sortase A [11] = target: T1, Sortase A; test: Inhibition of Staphylococcus aureus USA 300 SrtA expressed in Escherichia coli BL21 (DE3) cells using Dabcyl-QALPETGEE-Edans as substrate preincubated for 30 mins followed by substrate addition and further incubated for 1 hr by FRET assay
Sortase A [12] = target: T1, Sortase A; test: Inhibition of recombinant Staphylococcus aureus SrtA using Abz-LPETG-Dap(Dnp) as substrate
Sortase A [13] = target: T1, Sortase A; test: Inhibition of Staphylococcus aureus SrtA using FRET substrate incubated for 1 hr by FRET assay
Sortase A [14] = target: T1, Sortase A; test: Inhibition of Staphylococcus aureus SrtA using […] as substrate by FRET assay
Sortase A [15] = target: T1, Sortase A; test: Inhibition of Staphylococcus aureus SrtA with 24 residues truncated from N-terminus using Abz-LPATG-Dap as substrate
Sortase A [16] = target: T1, Sortase A; test: Binding affinity to wild type recombinant Staphylococcus aureus SrtA using Dabcyl-Gln-Ala-Leu-Pro-Glu-Thr-Gly-Glu-Glu-Edans as substrate by FRET assay
[17] = target: T2, Sortase A (Staphylococcus aureus); test: Binding affinity to wild type recombinant Staphylococcus aureus SrtA using Dabcyl-Gln-Ala-Leu-Pro-Glu-Thr-Gly-Glu-Glu-Edans as substrate assessed as second order rate constant of inhibition, kinact/Ki by FRET assay
[18] = target: T2, Sortase A (Staphylococcus aureus); test: Binding affinity to wild type recombinant Staphylococcus aureus SrtA using Dabcyl-Gln-Ala-Leu-Pro-Glu-Thr-Gly-Glu-Glu-Edans as substrate assessed as first order rate constant of inactivation by FRET assay
Sortase A [19] = target: T1, Sortase A; test: Inhibition of Staphylococcus aureus SrtA transpeptidation activity
Sortase A [20] = target: T1, Sortase A; test: Inhibition of wild type recombinant Staphylococcus aureus ATCC 25904 Sortase A expressed in Escherichia coli BL21 using Dabcyl-QALPETGEE-Edans as substrate incubated for 30 mins followed by substrate addition and measured after 60 mins by FRET assay

SMILES: COc1ccc(-c2coc3cc(O)ccc3c2=O)cc1 [FORMONONETIN]
IC50 (Sortase A [1]): 74.9 µM
MIC (Staphylococcus aureus [2]): > 478 µM

SMILES: COc1cc2c(cc1O)OC(c1ccccc1)CC2=O (configuration not stated)
IC50 (Sortase A [1]): 96.1 µM
MIC (Staphylococcus aureus [2]): > 4700 µM

SMILES: CC(C)C[C@H](N)C(=O)N1CCC[C@H]1C(=O)N[C@@H](CCCNC(=N)N)C(=O)N[C@@H](CC(=O)O)C(=O)N[C@@H](C)C(=O)O (H-LPRDA-OH)
IC50 (Sortase A [3]): 10.6 µM

SMILES: O=C1C[C@H]2O[C@H](CCc3ccccc3)C3=C(C(=O)C=CC3=O)[C@H]2O1
Ratio [4]: 1.09 10^4/M/min
kinact/Ki [4]: 183 M⁻¹ s⁻¹
Kinact [5]: 3.88 10^-2/min
Ki (Sortase A [6]): 3.57 µM

IC50 (Sortase A [7]): 24.2 µM
SMILES: CCCC(=O)c1c(O)c(CC2=C(O)C(C)(C)C(=O)C(C(C)=O)=C2O)c(O)c(Cc2c(O)c(C(=O)CCC)c(O)c(C(C)C3=C(O)C(C)(C)C(=O)C(C(C)=O)=C3O)c2O)c1O (configuration not stated)

SMILES: Cc1cc(C(=O)/C(=N/Nc2c(F)cccc2F)C(=O)O)no1
IC50 (Sortase A [8]): 76.5 µM
MIC (Staphylococcus aureus [9]): > 200 µM
IC50 (Staphylococcus aureus [10]): 29 µM

SMILES: Cc1cc(C(=O)/C(=N/Nc2ccc(Cl)c(Cl)c2)C(=O)O)no1
IC50 (Sortase A [8]): > 200 µM
IC50 (Staphylococcus aureus [10]): 0.8 µM

IC50 (Sortase A [11]): 53.2 µM
SMILES: O=C(/C=C/c1ccccc1)c1ccccc1 [CHALCONE]

SMILES: CC(C)C[C@H](NC(=O)[C@H](C)NC(=O)[C@@H](N)Cc1ccc(O)cc1)C(=O)N1CCC[C@H]1C(=O)N[C@@H](CCC(=O)O)C(=O)N[C@H](C)P(=O)(O)CCC(=O)N[C@@H](CCC(=O)O)C(=O)N[C@@H](CCC(=O)O)C(N)=O (H-YALPE[X1]EE-NH2)
IC50 (Sortase A [12]): 10000 µM

IC50 (Sortase A [13]): 36.2 µM
SMILES: O=c1ccc2cc(O)c(O)cc2o1 [ESCULETIN]

IC50 (Sortase A [14]): 67 µM
SMILES: O=c1cc(-c2ccc(O)cc2)oc2cc(O)c([C@@H]3O[C@H](CO)[C@@H](O)[C@H](O)[C@H]3O)c(O)c12 [ISOVITEXIN]

SMILES: O=S(=O)(O)c1cccc(-c2nn3c(-c4ccncc4)nnc3s2)c1
IC50 (Sortase A [15]): 9.3 µM

SMILES: CC(C)C[C@H](NC(=O)OCc1ccccc1)C(=O)N1CCC[C@H]1C(=O)N[C@@H](C)C(=O)N[C@H](C(=O)CCl)[C@@H](C)O (Cbz-LPAT-CH2Cl)
Ki (Sortase A [16]): 0.2 µM
Ratio [17]: 5.3 10^4/M/min
kinact/Ki [17]: 883 M⁻¹ s⁻¹
Kinact [18]: 1.1 10^-2/min

IC50 (Sortase A [19]): 161 µM
SMILES: O=C(/C=C/c1ccc(O)cc1)O[C@H]1[C@@H](O)[C@H](O)C[C@](O)(C(=O)O)[C@H]1O

MIC (Staphylococcus aureus [9]): 1600 µM (≈ 509 µg/mL)
IC50 (Sortase A [20]): 65.7 µM
SMILES: COc1ccc(CCc2cc(OC)c(OC)c(OC)c2)cc1O
